In US7098306B2, “Method and compositions for treating hepatocellular cancer” (The Regents of the University of California, priority 1997, dated 2006):

How the values were obtained:
[1] = system: AdVhAFP/DC immunized murine splenocytes; experiment: IFNg ELISPOT restimulation of AdVhAFP/DC immunized murine splenocytes with HPLC fractions eluted from HepG2 or Hep3B; format: cell-based; settings: HPLC fractions from Hep3B elution
Protocol: To elute peptides, HepG2 and Hep3B cells were washed three times with PBS before being incubated with 5 ml of citrate-phosphate buffer at pH 3.2 for 1 minute. The suspension was centrifuged (800×g for 5 minutes) and a total of 500 ml of cell-free supernatant was collected for each cell line. The materials were lyophilized to dryness and stored at −20° C.
Lyophilized materials were redissolved in 30 ml of water/acetonitrile/triflouroacetic acid (W/A/TFA, 95/5/0.1 all by vol.). This solution was pumped onto an analytical reverse phase HPLC column (Keystone Scientific C18 Betasil, 250 mm×2 mm, […] particle size, 100 Å pore size) equilibrated in W/A/TFA, at a flow rate of 0.2 ml/min. The column was eluted using an increasing linear gradient of 0.1% TFA in acetonitrile (time/%acetonitrile=0/5, 5/5, 55/100, 60/100). Column eluate absorbance was monitored at 215 and 280 nm and 1 minute fractions were collected. The retention times of the synthetic peptides with amino acid sequences corresponding to the immunostimulatory peptides were obtained using the same separation gradient on a separate column.
To confirm the presence of dominant peptides in these fractions immunologically, […] of each HPLC fraction from either HepG2 or Hep3B cells was used to restimulate AdVhAFP/DC immunized murine splenocytes in an ELISPOT assay. 200–250 spots/10^6 cells were observed from fractions containing dominant peptides, where 100–130 spots/10^6 cells were observed from the other fractions, and a maximum of 50 spots/10^6 cells were observed from Hep3B fractions. This further supports the mass spectrometry identification of the dominant peptides.

[2] = system: AFP positive/A2.1+ hepatocellular carcinoma; experiment: immunization of hepatocellular carcinoma patients with the four peptides in Montanide ISA-51, peripheral T cell responses by ELISPOT and tetramer; format: in vivo, human; settings: for in vivo T cell responses: patient AFP-A1, 100 μg each peptide, after the second and third immunization; for T cell responses by tetramer and ELISPOT: patient AFP-A2, following two immunizations
Protocol: The method and compositions of the present invention were used to treat several patients with AFP positive/A2.1+ hepatocellular carcinoma. Each of the patients were immunized with the four peptides hAFP137-145, residues 137–145 of SEQ ID NO:2; hAFP158-166, residues 158–166 of SEQ ID NO:2; hAFP325-334, residues 325–334 of SEQ ID NO:2; and hAFP542-550, residues 542–550 of SEQ ID NO:2, according to the this method. The peptides were emulsified in 0.5 ml of Montanide™ ISA-51 and combined for a total of 2 ml. The emulsified peptides were divided into four equal doses and each dose was administered in a separate site. Peripheral T cell responses are measured by ELISPOT and tetramer assays.
(§1) They were administered three immunizations of 100 μg each of the four peptides in Montanide™ ISA at two week intervals. Parallel in vitro PBMC cultures were also established from the first patient's blood before immunization and repetitively pulsed with each peptide. […] The presence of AFP542-specific T cells could not be assessed by tetramer as an AFP542 peptide tetramer could not be folded by the facility where these reagents are prepared.
The second patient, designated AFP-A2 was a person with a history of ethanol-induced liver cirrhosis, who was negative for both Hepatitis B and C. […] Their AFP level at presentation was 10,400 ng/ml. […] Seven months after presentation, they were then begun on a combination of the four peptides hAFP137-145, residues 137–145 of SEQ ID NO:2; hAFP158-166, residues 158–166 of SEQ ID NO:2; hAFP325-334, residues 325–334 of SEQ ID NO:2; and hAFP542-550, residues 542–550 of SEQ ID NO:2 using the protocol according to the present invention. They received two immunizations two weeks apart.

[3] = system: PBMC cultures; experiment: parallel in vitro PBMC cultures of patient AFP-A1 repetitively pulsed with each peptide; format: cell-based, human; settings: patient AFP-A1, day 28 cultures
Protocol: as §1

| Sequence | Immunologically Reactive Fractions (IFNg ELISPOT) Hep3B [1] | in vivo T cell responses [2] | T cell responses by tetramer and ELISPOT [2] | in vitro recognition by tetramer [3] |
| --- | --- | --- | --- | --- |
| PLFQVPEPV (listed as Homo sapiens) [hAFP137-145, dominant HLA-A*0201 peptide derived from human alpha fetoprotein] | 0 | clear recognition | T cell responses were detected | clear in vitro recognition |
| FMNKFIYEI (listed as Homo sapiens) [hAFP158-166, dominant HLA-A*0201 peptide derived from human alpha fetoprotein] | 0 | clear recognition | T cell responses were detected | – |
| GVALQTMKQ (listed as Homo sapiens) [hAFP542-550, dominant HLA-A*0201 peptide derived from human alpha fetoprotein] | 0 | clear recognition | T cell responses were detected | – |
| GLSPNLNRFL (listed as Homo sapiens) [hAFP325-334, dominant HLA-A*0201 peptide derived from human alpha fetoprotein] | 0 | trend towards recognition | T cell responses were detected | clear in vitro recognition |
